Measured values reported in BindingDB's records for doi:10.7270/Q2HM5725 (Burnham Center For Chemical Genomics, 2012).

Biological target: Neuropilin-1 (Homo sapiens, UniProt O14786)
Sequence (O14786 whole entry): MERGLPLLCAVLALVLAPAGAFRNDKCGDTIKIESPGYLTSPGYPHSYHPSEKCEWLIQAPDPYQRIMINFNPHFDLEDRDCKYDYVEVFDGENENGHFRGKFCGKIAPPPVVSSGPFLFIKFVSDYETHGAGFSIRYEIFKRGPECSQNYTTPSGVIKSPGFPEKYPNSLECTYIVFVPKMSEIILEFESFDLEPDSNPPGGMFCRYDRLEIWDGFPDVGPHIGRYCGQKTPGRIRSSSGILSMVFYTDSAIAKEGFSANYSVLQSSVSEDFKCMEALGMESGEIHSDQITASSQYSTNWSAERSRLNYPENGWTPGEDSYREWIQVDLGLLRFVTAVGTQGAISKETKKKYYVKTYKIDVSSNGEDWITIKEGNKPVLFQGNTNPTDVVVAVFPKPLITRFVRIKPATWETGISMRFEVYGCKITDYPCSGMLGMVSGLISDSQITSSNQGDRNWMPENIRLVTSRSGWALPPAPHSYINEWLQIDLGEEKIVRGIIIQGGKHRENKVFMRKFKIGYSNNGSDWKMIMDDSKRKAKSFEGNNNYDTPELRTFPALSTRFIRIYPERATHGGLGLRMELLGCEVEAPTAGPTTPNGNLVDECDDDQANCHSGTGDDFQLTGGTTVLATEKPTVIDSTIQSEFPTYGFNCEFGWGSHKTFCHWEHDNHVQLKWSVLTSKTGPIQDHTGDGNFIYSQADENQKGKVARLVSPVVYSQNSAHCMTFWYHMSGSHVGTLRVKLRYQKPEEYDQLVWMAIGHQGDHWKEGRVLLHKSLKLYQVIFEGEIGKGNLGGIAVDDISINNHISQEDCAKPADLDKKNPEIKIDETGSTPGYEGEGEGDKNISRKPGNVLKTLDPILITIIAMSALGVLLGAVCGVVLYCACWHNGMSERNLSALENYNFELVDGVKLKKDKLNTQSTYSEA

Q: How did the IC50 turn out when `O=C(Cc1ncnc2c1ncn2C1OC(CO)C(O)C1O)c1ccccc1` (configuration not stated) was run?
A: Its IC50 is > 95 µM.

Q: Which IC50 does the source give for `Cc1ccc(N=CC(S(=O)(=O)c2ccccc2)S(=O)(=O)c2ccccc2)cc1` here?
A: Its IC50 is > 95 µM.

Q: For `COC(=O)C1=C(C)N=C(C)C(C(=O)OC)C1C(=O)OC(C)C(=O)c1ccccc1` (configuration not stated) [2,6-dimethyl-1,4-dihydropyridine-3,4,5-tricarboxylic acid O3,O5-dimethyl ester O4-(1-oxo-1-phenylpropan-2-yl) ester], which IC50 is on record?
A: The IC50 was > 95 µM.

Q: For `C=CCN1C(=O)C2(c3ccccc3OC(=N)C2C(=O)OCC)c2c1c1ccccc1oc2=O` (configuration not stated) [2-amino-2',4'-dioxo-1'-prop-2-enyl-3-spiro[1-benzopyran-4,3'-[1]benzopyrano[4,3-b]pyrrole]carboxylic acid ethyl ester], which IC50 is on record?
A: The IC50 was > 95 µM.

Q: For `CCOc1ccc(-n2c(O)cc(N3CCN(c4ccc(Cl)cc4)CC3)c2O)cc1` [3-[4-(4-Chloro-phenyl)-piperazin-1-yl]-1-(4-ethoxy-phenyl)-pyrrolidine-2,5-dione], which IC50 is on record?
A: The IC50 was > 95 µM.

Q: `CCOC(=O)C1=C(C)N=C2CCCC(=O)C2C1c1cn(Cc2ccc(Cl)cc2Cl)nc1-c1ccccc1` (configuration not stated) [4-[1-[(2,4-dichlorophenyl)methyl]-3-phenyl-4-pyrazolyl]-2-methyl-5-oxo-4,6,7,8-tetrahydro-1H-quinoline-3-carboxylic acid ethyl ester] was tested. Which IC50 did it give?
A: The IC50 was > 95 µM.

Q: Which IC50 does the source give for `COc1ccc2c(c1)N(C)/C(=C1/S/C(=N\Cc3ccccc3)N(c3ccccc3)C1=O)S2` [(5Z)-5-(5-methoxy-3-methyl-1,3-benzothiazol-2-ylidene)-3-phenyl-2-(phenylmethyl)imino-1,3-thiazolidin-4-one] here?
A: Its IC50 is > 95 µM.

Q: Which IC50 does the source give for `COc1cccc(N2[C@@H](CC(C)=O)c3ccc(C=CC(C)=O)cc3S2(=O)=O)c1` [(E)-4-[(3S)-2-(3-methoxyphenyl)-1,1-bis(oxidanylidene)-3-(2-oxidanylidenepropyl)-3H-1,2-benzothiazol-6-yl]but-3-en-2-one] here?
A: Its IC50 is > 95 µM.

Q: How did the IC50 turn out when `C=CCOc1ccc(C2C(C(=O)c3c(C)[nH]c(C(=O)OC)c3C)C(=O)C(=O)N2CCN(C)C)cc1` (configuration not stated) [MLS000081294] was run?
A: Its IC50 is > 95 µM.

Q: With `Cn1cccc1C1Nc2ccccc2N=C2CC(C)(C)CC(=O)C21` (configuration not stated) [MLS000533228] as the compound, how does the IC50 read?
A: The IC50 was > 95 µM.

Q: For `CCC(NCCc1ccccc1)=C1C(=O)NC(=O)N(C2CCCCC2)C1=O` [MLS000557927], which IC50 is on record?
A: The IC50 was > 95 µM.

Q: For `Cc1ccc2c(c1)=C(c1ccncc1)NN=C(c1ccc(F)cc1)N=2` [MLS000692744], which IC50 is on record?
A: The IC50 was > 95 µM.

Q: How did the IC50 turn out when `CCC1=C(OC(=O)N(CC)CC)N2C(=O)O/C(=N\CC(=O)OC)[C@]2(Cc2ccccc2)[C@H]2C1=CC[C@H]1C(=O)N(CC(=O)OC)C(=O)[C@H]12` [MLS000877797] was run?
A: Its IC50 is > 95 µM.

Q: With `CC(C)C1=NC(=O)NC2CCCCC12` (configuration not stated) [SMR000060291] as the compound, how does the IC50 read?
A: The IC50 was > 95 µM.

Q: With `Cc1cc2c(cc1C)NC(c1nc3ccccc3[nH]1)C1C(=O)CC(C)(C)CC1=N2` (configuration not stated) [SMR000120514] as the compound, how does the IC50 read?
A: The IC50 was > 95 µM.

Q: For `COc1ccc(-n2c(O)cc(SCCc3nc4ccccc4[nH]3)c2O)cc1` [SMR000200354], which IC50 is on record?
A: The IC50 was > 95 µM.

Q: For `CC1(c2ccccc2)CC(C)(C)N2C(=O)/C(=C3/NC(=S)NC3=O)c3cccc1c32` (configuration not stated) [SMR000221518], which IC50 is on record?
A: Its IC50 is > 95 µM.

Q: With `Cc1ccc(CN=Nc2nc3ccccc3[nH]2)s1` [SMR000261490] as the compound, how does the IC50 read?
A: The IC50 was > 95 µM.

Q: Which IC50 does the source give for `CCC1=C(OC(=O)N(CC)CC)N2C(=O)O/C(=N\CC(=O)OC)[C@]2(C)[C@H]2C1=CC[C@H]1C(=O)N(CC)C(=O)[C@H]12` [SMR000440357] here?
A: The IC50 was > 95 µM.

Q: Which IC50 does the source give for `CCC1=C(OC(=O)N(CC)CC)N2C(=O)O/C(=N\CCOC)[C@]2(Cc2ccccc2)[C@H]2C1=CC[C@H]1C(=O)N(CC(=O)OC)C(=O)[C@H]12` [SMR000440375] here?
A: Its IC50 is > 95 µM.

Q: How did the IC50 turn out when `CCC1=C(OC(=O)N(CC)CC)N2C(=O)O/C(=N\CC3CC3)[C@]2(Cc2ccccc2)[C@H]2C1=CC[C@H]1C(=O)N(C)C(=O)[C@H]12` [SMR000440396] was run?
A: Its IC50 is > 95 µM.

Q: For `CCOC(=O)C1C(=O)C(=O)N(c2ccccc2)C1c1cccc([N+](=O)[O-])c1` (configuration not stated) [ethyl 2-(3-nitrophenyl)-4-oxidanyl-5-oxidanylidene-1-phenyl-2H-pyrrole-3-carboxylate], which IC50 is on record?
A: The IC50 was > 95 µM.
